Data from ChEMBL document CHEMBL1201862, “PubChem BioAssay data set” (2004).
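Cells were grown in 96-well plates and exposed to each compound for 48 hours at five concentrations; endpoints were interpolated linearly between bracketing concentrations, or set to the highest concentration if not reached. Here, GI50 denotes the concentration required for 50% inhibition of growth.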 Calls of active or inactive are those of the source. Cut-off read from the data, not from the text of the source: active = GI50 up to about 1.1 µM and inactive = higher.

Legend:
Experiment in all cases: NCI tumour cell line growth inhibition, 48 h
EKVX = tested on: EKVX
TK-10 = tested on: TK-10
COLO 205 = tested on: COLO 205
NCI-H23 = tested on: NCI-H23
CCRF-CEM = tested on: CCRF-CEM
HT-29 = tested on: HT-29
M14 = tested on: M14
ACHN = tested on: ACHN
SF-539 = tested on: SF-539
NCI-H226 = tested on: NCI-H226
SNB-19 = tested on: SNB-19
HL-60 = tested on: HL-60
Malme-3M = tested on: Malme-3M
MOLT-4 = tested on: MOLT-4
HCT-116 = tested on: HCT-116
OVCAR-8 = tested on: OVCAR-8
RPMI-8226 = tested on: RPMI-8226
SN12C = tested on: SN12C
HOP-92 = tested on: HOP-92
U-251 = tested on: U-251

Measured: GI50

COC(=O)c1ccccc1CC1Cc2cc3c(cc2C1=O)CCC3 (stereo not given)
inactive: EKVX 25.8 µM | TK-10 16.5 µM | COLO 205 8.59 µM | NCI-H23 19.3 µM | CCRF-CEM 6.53 µM | HT-29 8.71 µM | M14 10.4 µM | ACHN 27.7 µM | SF-539 16.8 µM | NCI-H226 18.5 µM | SNB-19 21.4 µM | HL-60 3.83 µM | Malme-3M 7.14 µM | MOLT-4 5.11 µM | HCT-116 5.32 µM | OVCAR-8 20.1 µM | RPMI-8226 10.5 µM | SN12C 11.5 µM | HOP-92 13.7 µM | U-251 10.4 µM

CN1C(c2ccccc2)CC(C)(O)CC1c1ccccc1 (stereo not given)
inactive: EKVX > 100 µM | TK-10 > 100 µM | COLO 205 > 100 µM | NCI-H23 > 100 µM | CCRF-CEM > 100 µM | HT-29 > 100 µM | M14 > 100 µM | ACHN > 100 µM | SF-539 > 100 µM | NCI-H226 > 100 µM | SNB-19 > 100 µM | HL-60 99.5 µM | Malme-3M > 100 µM | MOLT-4 > 100 µM | HCT-116 > 100 µM | OVCAR-8 > 100 µM | RPMI-8226 > 100 µM | SN12C > 100 µM | HOP-92 > 100 µM | U-251 > 100 µM

NC(Cc1cccnn1)C(=O)O (stereo not given)
inactive: EKVX > 100 µM | TK-10 > 100 µM | COLO 205 > 100 µM | NCI-H23 > 100 µM | CCRF-CEM > 100 µM | HT-29 > 100 µM | M14 > 100 µM | ACHN > 100 µM | SF-539 > 100 µM | NCI-H226 > 100 µM | SNB-19 > 100 µM | HL-60 > 100 µM | Malme-3M > 100 µM | MOLT-4 > 100 µM | HCT-116 > 100 µM | OVCAR-8 > 100 µM | RPMI-8226 > 100 µM | SN12C > 100 µM | HOP-92 > 100 µM | U-251 > 100 µM

COc1cccc(-n2nnc3c(N)nc(N)nc32)c1
inactive: EKVX 12.3 µM | TK-10 > 100 µM | COLO 205 > 100 µM | NCI-H23 28.9 µM | CCRF-CEM > 100 µM | HT-29 > 100 µM | M14 > 100 µM | ACHN 53.7 µM | SF-539 > 100 µM | NCI-H226 > 100 µM | SNB-19 48.8 µM | HL-60 > 100 µM | Malme-3M > 100 µM | MOLT-4 > 100 µM | HCT-116 > 100 µM | OVCAR-8 > 100 µM | RPMI-8226 > 100 µM | SN12C > 100 µM | HOP-92 > 100 µM | U-251 > 100 µM
